Activity calls are given as the source filed them.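 The calls were made as follows: active = activity score of 15 or more, from fitted potency or summed per-dose inhibition z-scores, roughly IC50 of 5 µM; inactive = the rest.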
test system: HUVEC TNFalpha-induced E-selectin immunofluorescence imaging; assay: E-selectin expression inhibitors, dose response, confirmation, imaging, HUVEC, immunofluorescence, TNFalpha stimulation (AID 517)

| SMILES | IC50 |
| --- | --- |
| CC(C)Cn1c(=O)c(C(=O)Nc2ccccc2S(N)(=O)=O)c(O)c2ccccc21 | > 8 µM (inactive) |
| C=CCn1c(-c2ccccc2)n[nH]c1=S | > 8 µM (inactive) |
| COCCNC(=O)C1CCCN(c2ncccn2)C1 (stereo unspecified) | > 8 µM (inactive) |
| O=C(Cc1cccs1)NCc1ccc(F)cc1 | > 8 µM (inactive) |
| O=C1COc2ccc(C(=O)NCc3ccco3)cc2N1 | > 8 µM (inactive) |
| CCn1c(=O)n(CC(=O)N(C)Cc2ccccc2)c(=O)c2ccccc21 | > 8 µM (inactive) |
| CCOC(=O)c1sc(NC(=O)CSc2n[nH]c(-c3ccccc3)n2)c(C#N)c1C | > 8 µM (inactive) |
| Nc1c2c(nc3ccccc13)N(c1ccccc1)CC2 | > 8 µM (inactive) |
| OC1C[N+]2(CCCCC2)C1 | > 8 µM (inactive) |
| COCCn1c(=O)[nH]c2cc(C(=O)NCc3cccnc3)ccc2c1=O | > 8 µM (inactive) |
| Cc1cc2oc(=O)cc(CN3CCCCC3)c2cc1C(C)C | > 8 µM (inactive) |
| CC1=CC=CC2=NC(=O)CC(C)(C(=O)N(CC(=O)NC(C)C)C3CCCC3)N12 (stereo unspecified) | > 8 µM (inactive) |
| COc1cccc2c1C(=O)c1c(O)c3c(c(O)c1C2=O)C[C@@](O)(C(=O)CO)C[C@@H]3O[C@H]1C[C@H](N)[C@H](O)[C@H](C)O1 | 3.2 µM |
| Cc1ccc2[nH]c(=O)c(CN(CCc3ccccc3)Cc3nnnn3CC3CCCO3)cc2c1 (stereo unspecified) | > 8 µM (inactive) |
| CN(C(=O)c1ccc2c(=O)n3c(nc2c1)CCCCC3)c1ccccc1 | > 8 µM (inactive) |
| Cc1nc2ccccc2nc1OCC(=O)Nc1cc(C(F)(F)F)ccc1N1CCOCC1 | > 8 µM (inactive) |
| O=C(OCc1ccc2c(c1)OCO2)c1ccc(S(=O)(=O)N2CCCCC2)cc1 | > 8 µM (inactive) |
| COc1ccc(-c2nnc(-c3cccs3)o2)cc1OC | > 8 µM (inactive) |
| Cc1cc2c(cc1C)-c1nnnn1C(C)(C)C2 | > 8 µM (inactive) |
| CC1CCN(C(=O)CSc2nc3ccccc3[nH]2)CC1 | > 8 µM (inactive) |
| O=C1CC(N2CCN(c3cccc(C(F)(F)F)c3)CC2)C(=O)N1c1ccccc1 (stereo unspecified) | > 8 µM (inactive) |
| CCOC(=O)C1CCCN(C(=O)c2sc3nc(-c4ccccc4)cn3c2C)C1 (stereo unspecified) | > 8 µM (inactive) |
| CC1CN(C(=O)CSc2nnc(-c3ccncc3)n2-c2ccccc2)CC(C)O1 (stereo unspecified) | > 8 µM (inactive) |

| SMILES | IC50 |
| --- | --- |
| Cc1cc(C)n(C2=NS(=O)(=O)c3ccccc32)n1 | > 8 µM (inactive) |
| COc1ccccc1OCC(O)COC(N)=O (stereo unspecified) | > 8 µM (inactive) |
| CCOC(=O)C1CCCN(C(=O)c2cc3c(=O)n4cccc(C)c4nc3n2C)C1 (stereo unspecified) | > 8 µM (inactive) |
| C=CCNc1nc(C)nc(OC)n1 | > 8 µM (inactive) |
| Cc1c(NC2=NC3(CCCCC3)Cc3ccccc32)c(=O)n(-c2ccccc2)n1C | > 8 µM (inactive) |
| CCn1c(=N)n(CC(=O)c2ccco2)c2ccccc21 | > 8 µM (inactive) |
| Cc1ccc(N=C2NC(=O)CS2)c(C)c1 | > 8 µM (inactive) |
| COc1ccccc1-c1c(C)nn2c(C)c(C(C)=O)cnc12 | > 8 µM (inactive) |
| O=C(NCCCN1CCCC1=O)c1cncc(Br)c1 | > 8 µM (inactive) |
| COc1ccc(CCN2C(=O)CC(N3CCN(S(=O)(=O)c4ccccc4)CC3)C2=O)cc1 (stereo unspecified) | > 8 µM (inactive) |
| C=CS(=O)(=O)c1ccc(Oc2ccc(S(=O)(=O)C=C)cc2)cc1 | 0.55 µM |
| Cc1cc(NC(=O)COC(=O)c2cccc(S(=O)(=O)N3CCOCC3)c2)no1 | > 8 µM (inactive) |
| O=C(c1ccc2c3c(cccc13)C(=O)N(O)C2=O)N1CCCCC1 | > 8 µM (inactive) |
| CCN(CC(=O)NC(=O)NCc1ccco1)Cc1nc2ccccc2c(=O)[nH]1 | > 8 µM (inactive) |
| Cc1cc(NC(=O)CS(=O)(=O)c2cn(Cc3ccccc3Cl)c3ccccc23)no1 | > 8 µM (inactive) |
| Cc1c(O)c(CN2CCCC2)cc2c1oc(=O)c1ccccc12 | > 8 µM (inactive) |
| COc1ccc(CCNC(=O)C2=COCCO2)cc1 | > 8 µM (inactive) |
| CN(CCc1ccccn1)c1ncnc2[nH]ncc12 | > 8 µM (inactive) |
| O=C1c2ccccc2S(=O)(=O)N1Cc1nnc(-c2ccccc2Br)o1 | > 8 µM (inactive) |
| CC1Oc2ccccc2N(CC(=O)N(Cc2ccccc2)Cc2ccccn2)C1=O (stereo unspecified) | > 8 µM (inactive) |
| COc1ccc(NC(=O)CSc2nnc(-c3ccccc3C)n2C)cc1 | > 8 µM (inactive) |
| CC[C@H]1CN2CCc3cc(OC)c(OC)cc3[C@@H]2C[C@@H]1C[C@H]1NCCc2cc(OC)c(OC)cc21 | 0.08 µM |
| COc1ccc(C(=O)CSc2nnc(C3CCCCC3)n2N)c(OC)c1 | > 8 µM (inactive) |

| SMILES | IC50 |
| --- | --- |
| COc1ccc(Cc2nc3ccc(S(N)(=O)=O)cc3[nH]2)cc1OC | > 8 µM (inactive) |
| N#Cc1c(NCc2ccccc2)ccnc1NCc1cccnc1 | > 8 µM (inactive) |
| CCN(CC)S(=O)(=O)c1ccc2[nH]cc(C(=O)NCCC3=CCCCC3)c(=O)c2c1 | > 8 µM (inactive) |
| Cc1ccc(O)c(C(=O)c2cc(C#N)c(=O)n(CC3CCCO3)c2)c1 (stereo unspecified) | > 8 µM (inactive) |
| COc1ccc(CCn2c(O)c(C=NCc3cccnc3)c(=O)[nH]c2=O)cc1OC | > 8 µM (inactive) |
| Cc1oc(-c2ccccc2Cl)nc1CSCC(=O)N1CCCC1 | > 8 µM (inactive) |
| Cc1nnc(SCCn2c(N3CC(C)CC(C)C3)nc3c2c(=O)n(C)c(=O)n3C)s1 (stereo unspecified) | > 8 µM (inactive) |
| O=C(Nc1ccc2[nH]c3c(c2c1)CCCC3)c1ccco1 | > 8 µM (inactive) |
| O=C(O)CC1CCCC(c2ccccc2)C1=O (stereo unspecified) | > 8 µM (inactive) |
| O=c1cc(NCc2ccccc2)nc2n1CCCS2 | > 8 µM (inactive) |
| CC(C)C(C(=O)Nc1ccc2c(c1)OCO2)N1C(=O)c2ccccc2C1=O (stereo unspecified) | > 8 µM (inactive) |
| Cc1ccc(SC(C)c2nc(-c3ccccc3)no2)cc1 (stereo unspecified) | > 8 µM (inactive) |
| O=C(CSc1ccc(-c2ccccc2)nn1)N1CCOCC1 | > 8 µM (inactive) |
| COc1cccc2c1C(=O)c1c(O)c3c(c(O)c1C2=O)C[C@@](O)(C(C)=O)C[C@@H]3O[C@H]1C[C@H](N)[C@H](O)[C@H](C)O1 | 0.63 µM |
| COc1ccc(OC)c2[nH]c(=O)c(CCNC(=O)CC(C)C)cc12 | > 8 µM (inactive) |
| COc1ccc(OC(=O)c2cc3ccccc3o2)cc1 | > 8 µM (inactive) |
| O=C(NCCN1CCOCC1)c1ccc(=O)oc1 | > 8 µM (inactive) |
| O=C(O)C1C2CCC(C2)C1C(=O)NCCCn1ccnc1 (stereo unspecified) | > 8 µM (inactive) |
| CCN(CC)CCCNC(=O)c1cn(C)c2ccc(S(=O)(=O)N(C)C)cc2c1=O | > 8 µM (inactive) |
| C=CCOC(=O)COc1cc(C)cc2oc(=O)c3c(c12)CCC3 | > 8 µM (inactive) |
| COC(=O)C1=C(C)NC(C)=C(C(=O)OC)C1C(=O)OC1CCCCC1=O (stereo unspecified) | > 8 µM (inactive) |
| O=C(Nc1cccc(F)c1)c1ccc2c(c1)OCO2 | > 8 µM (inactive) |
| O=C1CC(c2ccc(S(=O)(=O)N3CCN(c4ccccc4)CC3)cc2)CN1 (stereo unspecified) | > 8 µM (inactive) |

| SMILES | IC50 |
| --- | --- |
| FC(F)Oc1cccc2cccnc12 | > 8 µM (inactive) |
| O=C(Nc1ccc(SC(F)F)cc1)c1ccc2nccnc2c1 | > 8 µM (inactive) |
| Fc1cc(F)c(F)c(SCCc2ccncc2)c1F | > 8 µM (inactive) |
| O=C(COn1nnc2ccc(C(F)(F)F)cc21)Nc1nnc(-c2ccccc2)o1 | > 8 µM (inactive) |
| C[C@H]1CCC/C=C/C2C[C@H](O)CC2[C@H](O)/C=C/C(=O)O1 (stereo partly specified) | < 0.01 µM |
| Cc1ccc(C)c(-n2c(Cc3cc(=O)[nH]c(=O)[nH]3)nnc2SCC(=O)NCc2ccco2)c1 | > 8 µM (inactive) |
| CC1(C)CC(=O)C(C=NC(CCC(N)=O)C(=O)O)=C(O)C1 (stereo unspecified) | > 8 µM (inactive) |
| FC(F)Oc1ccc(-c2csc(Cc3nnc4n3CCCCC4)n2)cc1 | > 8 µM (inactive) |
| Cc1cc(N2C(=O)C3C4C=CC(C4)C3C2=O)ccc1Br (stereo unspecified) | > 8 µM (inactive) |
| CN(Cc1ccccc1)Cc1nc2c([nH]1)c(=O)[nH]c(=O)n2C | > 8 µM (inactive) |
| CCCCSc1nc(O)c(C2OC(=O)c3c2ccc(OC)c3OC)c(=O)n1C (stereo unspecified) | > 8 µM (inactive) |
| Cn1cccc1Cc1nnc(SCC(=O)N2CCOCC2)n1-c1ccc(F)cc1 | > 8 µM (inactive) |
| Cc1cnc(NC(=O)CSc2nc3ccccc3c(=O)[nH]2)s1 | > 8 µM (inactive) |
| COC(=O)CCC(=O)Nc1cccc(Br)c1 | > 8 µM (inactive) |
| COc1ccc2c(C)nc(Nc3nc(C)cc(C)n3)nc2c1 | > 8 µM (inactive) |
| O=c1c2ccccc2nc(SCc2cn3ccsc3n2)n1-c1ccc(F)cc1 | > 8 µM (inactive) |
| CC1CCN(CCC(=O)Nc2ccc(Br)cc2)CC1 | > 8 µM (inactive) |
| CC(=O)Nc1sc2c(c1CN1CCN(c3ccccn3)CC1)CCCC2 | > 8 µM (inactive) |
| COc1ccc(Cl)cc1NC(=O)CSc1nncn1-c1cccnc1 | > 8 µM (inactive) |
| Cc1ccc(Nc2nc(N)nc(CN3CCCCCC3)n2)cc1 | > 8 µM (inactive) |
| O=S1(=O)C=C(Sc2nc3ccccc3s2)c2ccccc21 | 1.85 µM |
| N#CCCn1cnc2ccccc21 | > 8 µM (inactive) |

Reference: PubChem BioAssay AID517 (Columbia University Molecular Screening Center, 2006)
